# Experimental data: PubChem BioAssay AID588840 (Broad Institute, 2011)
# System: not listed separately
# Experiment: MDA-MB-231 breast cancer cell growth inhibition, dose response, CellTiter-Glo luminescence, dry powder, set 2 (AID 588840)
# Conditions: MDA-MB-231 viability, CellTiter-Glo luminescence, 72 h; at 32 µM (top of the series)
row,Structure (SMILES),viability fraction (lower = toxic) [%]
1,COc1ccc(/C=C/C(=O)NC2=NCCS2)c(OC)c1,118
2,CC(C)c1ccc(/C=C/C(=O)NC2=NCCS2)cc1,34.6
3,O=C(NC1CCCC1)c1ccc(COc2ccccc2)o1,101
4,Cc1csc(NC(=O)c2ccc(COc3ccccc3)o2)n1,72.4
5,Cc1ccc(/C=C/C(=O)NC2=NCCS2)cc1,114
6,O=C(/C=C/c1ccc(-c2ccccc2)cc1)NC1=NCCS1,76.4

# System: MDA-MB-231 viability, CellTiter-Glo luminescence, 72 h
# Experiment: as above
# Conditions: not given
row,Structure (SMILES),AC50 [nM]
1,Cc1csc(NC(=O)c2ccc(COc3cccc(F)c3)o2)n1,480
